# Test results published in PubChem BioAssay (NCI).
#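 Grown in 96-well plates, cells were treated for 48 hours with each compound at five concentrations. Insufficient inhibition: endpoint recorded as highest concentration tested. GI50 is the concentration that inhibits growth by half. TGI: total growth inhibition.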
# What was measured:
# Test in all cases: inhibition of tumour cell growth, NCI panel, 48 h
# SK-OV-3 ovarian = tested on: SK-OV-3 ovarian
# M14 melanoma = tested on: M14 melanoma
# OVCAR-8 ovarian = tested on: OVCAR-8 ovarian
# PC-3 prostate = tested on: PC-3 prostate
# KM12 colon = tested on: KM12 colon
# SF-295 CNS = tested on: SF-295 CNS
# BT-549 breast = tested on: BT-549 breast
# HS 578T breast = tested on: HS 578T breast
# OVCAR-5 ovarian = tested on: OVCAR-5 ovarian
# MCF7 breast = tested on: MCF7 breast
# SK-MEL-28 melanoma = tested on: SK-MEL-28 melanoma
# SK-MEL-5 melanoma = tested on: SK-MEL-5 melanoma
# 786-0 renal = tested on: 786-0 renal
# OVCAR-4 ovarian = tested on: OVCAR-4 ovarian
# HOP-92 NSCLC = tested on: HOP-92 NSCLC
# NCI-H226 lung = tested on: NCI-H226 lung
# SW-620 colon = tested on: SW-620 colon
# T-47D breast = tested on: T-47D breast
# MOLT-4 leukemia = tested on: MOLT-4 leukemia
# NCI/ADR-RES ovarian = tested on: NCI/ADR-RES ovarian
# UO-31 renal = tested on: UO-31 renal
# DU-145 prostate = tested on: DU-145 prostate
# HCT-116 colon = tested on: HCT-116 colon
# SF-268 CNS = tested on: SF-268 CNS
# TK-10 renal = tested on: TK-10 renal
# SR leukemia = tested on: SR leukemia
# A549 NSCLC = tested on: A549 NSCLC
# HOP-62 NSCLC = tested on: HOP-62 NSCLC
# HCT-15 colon = tested on: HCT-15 colon
# MALME-3M melanoma = tested on: MALME-3M melanoma
# MDA-MB-435 = tested on: MDA-MB-435
# UACC-257 melanoma = tested on: UACC-257 melanoma
# SF-539 CNS = tested on: SF-539 CNS
# NCI-H460 lung = tested on: NCI-H460 lung
# RXF 393 renal = tested on: RXF 393 renal
# UACC-62 melanoma = tested on: UACC-62 melanoma
# U251 CNS = tested on: U251 CNS
# K-562 leukemia = tested on: K-562 leukemia
# HT29 colon = tested on: HT29 colon
# MDA-MB-231 breast = tested on: MDA-MB-231 breast
# HCC-2998 colon = tested on: HCC-2998 colon
# SNB-19 CNS = tested on: SNB-19 CNS
# RPMI-8226 leukemia = tested on: RPMI-8226 leukemia
# EKVX NSCLC = tested on: EKVX NSCLC
# A498 renal = tested on: A498 renal
# COLO 205 colon = tested on: COLO 205 colon
# LOX IMVI melanoma = tested on: LOX IMVI melanoma
# NCI-H522 lung = tested on: NCI-H522 lung
# OVCAR-3 ovarian = tested on: OVCAR-3 ovarian
# SK-MEL-2 melanoma = tested on: SK-MEL-2 melanoma
# CAKI-1 renal = tested on: CAKI-1 renal
# SN12C renal = tested on: SN12C renal
# IGROV1 ovarian = tested on: IGROV1 ovarian
# ACHN renal = tested on: ACHN renal
# NCI-H23 lung = tested on: NCI-H23 lung
smiles,measurement,setting,value
Oc1ccccc1C=Nc1nc(OCc2ccccc2)nc2[nH]ncc12,GI50,SK-OV-3 ovarian,25.9 µM
same,TGI,SK-OV-3 ovarian,55.4 µM
same,GI50,M14 melanoma,21.6 µM
same,TGI,M14 melanoma,57.7 µM
same,GI50,OVCAR-8 ovarian,44.3 µM
same,TGI,OVCAR-8 ovarian,> 100 µM
same,GI50,PC-3 prostate,16.8 µM
same,TGI,PC-3 prostate,51.4 µM
same,GI50,KM12 colon,20.4 µM
same,TGI,KM12 colon,47.1 µM
same,GI50,SF-295 CNS,19.9 µM
same,TGI,SF-295 CNS,39.3 µM
same,GI50,BT-549 breast,33.7 µM
same,TGI,BT-549 breast,86.7 µM
same,GI50,HS 578T breast,19.2 µM
same,TGI,HS 578T breast,56.9 µM
same,GI50,OVCAR-5 ovarian,27.2 µM
same,TGI,OVCAR-5 ovarian,83.9 µM
same,GI50,MCF7 breast,15.5 µM
same,TGI,MCF7 breast,35.2 µM
same,GI50,SK-MEL-28 melanoma,22.2 µM
same,TGI,SK-MEL-28 melanoma,43.1 µM
same,GI50,SK-MEL-5 melanoma,15.1 µM
same,TGI,SK-MEL-5 melanoma,29.7 µM
same,GI50,786-0 renal,34.8 µM
same,TGI,786-0 renal,> 100 µM
same,GI50,OVCAR-4 ovarian,23.5 µM
same,TGI,OVCAR-4 ovarian,69.6 µM
same,GI50,HOP-92 NSCLC,11.7 µM
same,TGI,HOP-92 NSCLC,43.7 µM
same,GI50,NCI-H226 lung,16.5 µM
same,TGI,NCI-H226 lung,40.6 µM
same,GI50,SW-620 colon,27.4 µM
same,TGI,SW-620 colon,76.1 µM
same,GI50,T-47D breast,14 µM
same,TGI,T-47D breast,46.3 µM
same,GI50,MOLT-4 leukemia,21.5 µM
same,TGI,MOLT-4 leukemia,> 100 µM
same,GI50,NCI/ADR-RES ovarian,28.5 µM
same,TGI,NCI/ADR-RES ovarian,78.8 µM
same,GI50,UO-31 renal,30.5 µM
same,TGI,UO-31 renal,> 100 µM
same,GI50,DU-145 prostate,33.9 µM
same,TGI,DU-145 prostate,> 100 µM
same,GI50,HCT-116 colon,18.4 µM
same,TGI,HCT-116 colon,41.9 µM
same,GI50,SF-268 CNS,20.1 µM
same,TGI,SF-268 CNS,77.5 µM
same,GI50,TK-10 renal,10.6 µM
same,TGI,TK-10 renal,32.8 µM
same,GI50,SR leukemia,13.1 µM
same,TGI,SR leukemia,39.5 µM
same,GI50,A549 NSCLC,38.7 µM
same,TGI,A549 NSCLC,> 100 µM
same,GI50,HOP-62 NSCLC,26.2 µM
same,TGI,HOP-62 NSCLC,84.8 µM
same,GI50,HCT-15 colon,38.3 µM
same,TGI,HCT-15 colon,> 100 µM
same,GI50,MALME-3M melanoma,16.6 µM
same,TGI,MALME-3M melanoma,38.2 µM
same,GI50,MDA-MB-435,20.7 µM
same,TGI,MDA-MB-435,44.8 µM
same,GI50,UACC-257 melanoma,34.2 µM
same,TGI,UACC-257 melanoma,> 100 µM
same,GI50,SF-539 CNS,22.1 µM
same,TGI,SF-539 CNS,43 µM
same,GI50,NCI-H460 lung,24.4 µM
same,TGI,NCI-H460 lung,> 100 µM
same,GI50,RXF 393 renal,4.56 µM
same,TGI,RXF 393 renal,33.4 µM
same,GI50,UACC-62 melanoma,13.6 µM
same,TGI,UACC-62 melanoma,28.9 µM
same,GI50,U251 CNS,22.4 µM
same,TGI,U251 CNS,62 µM
same,GI50,K-562 leukemia,30.3 µM
same,TGI,K-562 leukemia,> 100 µM
same,GI50,HT29 colon,22.5 µM
same,TGI,HT29 colon,49.3 µM
same,GI50,MDA-MB-231 breast,15 µM
same,TGI,MDA-MB-231 breast,37.3 µM
same,GI50,HCC-2998 colon,20.2 µM
same,TGI,HCC-2998 colon,38.1 µM
same,GI50,SNB-19 CNS,37.7 µM
same,TGI,SNB-19 CNS,> 100 µM
same,GI50,RPMI-8226 leukemia,14.4 µM
same,TGI,RPMI-8226 leukemia,43.5 µM
same,GI50,EKVX NSCLC,30.1 µM
same,TGI,EKVX NSCLC,97.8 µM
same,GI50,A498 renal,20.8 µM
same,TGI,A498 renal,56.9 µM
same,GI50,COLO 205 colon,22.2 µM
same,TGI,COLO 205 colon,49.6 µM
same,GI50,LOX IMVI melanoma,18 µM
same,TGI,LOX IMVI melanoma,46.2 µM
same,GI50,NCI-H522 lung,26.3 µM
same,TGI,NCI-H522 lung,> 100 µM
same,GI50,OVCAR-3 ovarian,17.8 µM
same,TGI,OVCAR-3 ovarian,49.1 µM
same,GI50,SK-MEL-2 melanoma,32.2 µM
same,TGI,SK-MEL-2 melanoma,> 100 µM
same,GI50,CAKI-1 renal,14.2 µM
same,TGI,CAKI-1 renal,50.5 µM
same,GI50,SN12C renal,17.2 µM
same,TGI,SN12C renal,40.7 µM
same,GI50,IGROV1 ovarian,34.8 µM
same,TGI,IGROV1 ovarian,> 100 µM
same,GI50,ACHN renal,28 µM
same,TGI,ACHN renal,> 100 µM
same,GI50,NCI-H23 lung,15.4 µM
same,TGI,NCI-H23 lung,79.7 µM
